System: Gambusia affinis
Assay: Ichthyotoxicity against Gambusia affinis at 10 ppm
Type: organism-based
Settings: in vivo; call rule not given here

CC(=O)O[C@@H]1OCC2=CC[C@H]3[C@]4(C)CC[C@H]5C(C)(C)CCC[C@]5(C)[C@H]4CC(=O)[C@]3(C)[C@H]21
Activity: Toxic

CC1(C)CCC[C@]2(C)[C@H]3C[C@H](O)[C@]4(C)[C@@H](C=O)C(C=O)=CC[C@H]4[C@]3(C)CC[C@@H]12
Activity: Toxic

CC1(C)CCC[C@]2(C)[C@H]3CC(=O)[C@]4(C)[C@@H](C=O)C(C=O)=CC[C@H]4[C@]3(C)CC[C@@H]12
Activity: Toxic

CC(=O)O[C@H]1C[C@@H]2[C@@]3(C)CCCC(C)(C)[C@@H]3CC[C@@]2(C)[C@@H]2CC=C(C=O)[C@H](C=O)[C@@]12C [SCALARADIAL]
Activity: Toxic

CC(=O)O[C@H]1C[C@@H]2[C@@]3(C)CCCC(C)(C)[C@@H]3CC[C@@]2(C)[C@@H]2CC=C3CO[C@@H](O)[C@@H]3[C@@]12C
Activity: Toxic

CC1(C)CCC[C@]2(C)[C@H]3CC(=O)[C@]4(C)[C@@H]5C(=CC[C@H]4[C@]3(C)CC[C@@H]12)CO[C@H]5O
Activity: Toxic

CC(=O)O[C@@H]1OCC2=CC[C@H]3[C@]4(C)CC[C@H]5C(C)(C)CCC[C@]5(C)[C@H]4C[C@H](OC(C)=O)[C@]3(C)[C@H]21 [DEOXOSCALARIN ACETATE]
Activity: Not Active
